{"source": "patent US20230192700A1", "about": "“PYRAZOLOPYRAZINES ACTING ON CANCERS VIA INHIBITION OF CDK12” (Bayer Aktiengesellschaft, priority 2020, published 2023)"}
{"target": "T1, CDK12/CyclinK (Homo sapiens, UniProt Q9NYV4)", "T1 construct": "His-CDK12 (aa Q696-S1082); made in house; host or cells: Hi-5 insect cells (baculovirus co-infection with CycK and yeast CAK1)", "T1 sequence (Q9NYV4 with tags, fused parts or gaps)": "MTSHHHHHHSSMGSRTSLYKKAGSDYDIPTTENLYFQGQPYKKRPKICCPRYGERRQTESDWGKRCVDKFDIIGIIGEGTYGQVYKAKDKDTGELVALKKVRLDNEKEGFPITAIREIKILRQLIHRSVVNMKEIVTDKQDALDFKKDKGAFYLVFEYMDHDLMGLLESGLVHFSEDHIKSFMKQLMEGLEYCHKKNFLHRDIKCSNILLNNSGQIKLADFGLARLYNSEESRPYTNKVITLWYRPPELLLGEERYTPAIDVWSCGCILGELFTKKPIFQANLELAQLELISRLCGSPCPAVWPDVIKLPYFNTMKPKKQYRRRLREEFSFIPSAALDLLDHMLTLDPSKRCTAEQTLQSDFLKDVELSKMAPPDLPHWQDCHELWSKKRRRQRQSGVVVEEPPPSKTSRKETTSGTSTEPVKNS", "T1 sequence (O75909 with tags, fused parts or gaps partner limits assumed)": "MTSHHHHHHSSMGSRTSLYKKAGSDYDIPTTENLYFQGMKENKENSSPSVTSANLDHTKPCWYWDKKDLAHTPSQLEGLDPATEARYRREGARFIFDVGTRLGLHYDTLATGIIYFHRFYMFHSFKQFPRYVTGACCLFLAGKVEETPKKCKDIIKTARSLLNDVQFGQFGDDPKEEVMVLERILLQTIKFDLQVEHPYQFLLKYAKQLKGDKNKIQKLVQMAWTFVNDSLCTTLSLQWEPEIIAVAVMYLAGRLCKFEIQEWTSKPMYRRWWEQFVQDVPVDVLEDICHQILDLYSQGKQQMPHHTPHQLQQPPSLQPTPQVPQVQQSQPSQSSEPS", "assay": "CDK12/CycK high ATP kinase assay (TR-FRET)", "assay_type": "biochemical", "conditions": "2 mM ATP (high ATP); median; read-out: CDK12/CyclinK, 2 mM ATP (high ATP), IC50 - [mol/l] (median)", "source_text": "2.2 CDK12/CycK high ATP Kinase Assay\nIn the context of the present invention, the term “IC50 CDK12 hATP” refers to the ICso values obtained according to the assay described in this section (2.2) herein below, i.e. the IC50 values for the inhibition of CDK12 at high ATP.\nCDK12/CycK -inhibitory activity of compounds of the present invention at 2 millimol/L adenosine-tri-phosphate (ATP) was quantified employing the TR-FRET (TR-FRET=Time Resolved Fluorescence Energy Transfer) based CDK12/CycK activity inhibition assay as described in the following paragraphs.\nA complex of human recombinant CDK12 and human recombinant CycK (both N-terminally His-tagged, expression and purification as described above) was used as enzyme. As substrate for the kinase reaction biotinylated peptide biotin-Ahx-KFELLPTPPLSPSRRSGL (C-terminus in amid form) was used which can be purchased e.g. form the company Biosyntan (Berlin-Buch, Germany).\nFor the assay 50 nanoL of a 100 fold concentrated solution of the test compound in DMSO was pipetted into either a black low volume 384 well microtiter plate or a black 1536 well microtiter plate (both Greiner Bio-One, Frickenhausen, Germany), 2 microL of a solution of CDK12/CycK in aqueous assay buffer [25 millimol/L HEPES pH 7.5, 20 millimol/L MgCl2, 5 millimol/L β-glycerophosphate, 2 millimol/L EGTA, 1.0 millimol/L dithiothreitol, 0.01% (v/v) Nonidet-P40 (Sigma), 0.01% (w/v) bovine serum albumin] were added and the mixture was incubated for 15 min at 22° C. to allow pre-binding of the test compounds to the enzyme before the start of the kinase reaction. Then the kinase reaction was started by the addition of 3 microL of a solution ATP (3.33 millimol/L=>final conc. in the 5 microL assay volume is 2 millimol/L) and substrate (1.67 micromol/L=>final conc. in the 5 microL assay volume is 1 micromol/L) in assay buffer and the resulting mixture was incubated for a reaction time of 60 min at 22° C. The concentration of CDK12/CycK was adjusted depending of the activity of the enzyme lot and was chosen appropriate to have the assay in the linear range, typical concentrations were about 0.75 nanomol/L. The reaction was stopped by the addition of 3 microL of a solution of TR-FRET detection reagents (125 nanomol/L streptavidine-XL665 [Cisbio Bioassays, Codolet, France] and 0.67 nanomol/L anti-Phospho-c-Myc (Ser 62) (E1J4K)-antibody from Cell Signalling [#13748] and 2 nanomol/L LANCE EU-W1024 labeled anti-rabbit IgG antibody [Perkin-Elmer, product no. 0083]) in an aqueous EDTA-solution (133 millimol/L EDTA, 0.27% (w/v) bovine serum albumin in 66.7 millimol/L HEPES pH 7.5).\nThe resulting mixture was incubated 1 h at 22° C. to allow the formation of complex between the phosphorylated biotinylated peptide and the detection reagents. Subsequently the amount of phosphorylated substrate was evaluated by measurement of the resonance energy transfer from the Eu-chelate to the streptavidine-XL. Therefore, the fluorescence emissions at 620 nm and 665 nm after excitation at 350 nm was measured in a TR-FRET reader, e.g. a Pherastar FS (BMG Labtechnologies, Offenburg, Germany) or a Viewlux (Perkin-Elmer). The ratio of the emissions at 665 nm and at […] was taken as the measure for the amount of phosphorylated substrate. The data were normalised (enzyme reaction without inhibitor=0% inhibition, all other assay components but no enzyme=100% inhibition).", "units": {"IC50": "µM"}}
{"smiles": "CN1CCC(n2nc(NCc3nc4cc(SC(F)(F)F)ccc4[nH]3)c3ncc(C4CC4)nc32)CC1", "note": "[Example 27, 6-cyclopropyl-1-(1-methylpiperidin-4-yl)-N-({5-[(trifluoromethyl)sulfanyl]-1H-benzimidazol-2-yl}methyl)-1H-pyrazolo[3,4-b]pyrazin-3-amine]", "IC50": 2.02}
{"smiles": "CC1(C)CC(n2nc(NCc3nc4ccccc4[nH]3)c3ncc(C4CC4)nc32)CC(C)(C)O1", "note": "[Example 52, N-[(1H-benzimidazol-2-yl)methyl]-6-cyclopropyl-1-(2,2,6,6-tetramethyloxan-4-yl)-1H-pyrazolo[3,4-b]pyrazin-3-amine]", "IC50": "> 20"}
{"smiles": "c1ccc2[nH]c(CNc3nn(C4CC5(COC5)C4)c4nc(C5CC5)cnc34)nc2c1", "note": "[Example 54, N-[(1H-benzimidazol-2-yl)methyl]-6-cyclopropyl-1-(2-oxaspiro[3.3]heptan-6-yl)-1H-pyrazolo[3,4-b]pyrazin-3-amine]", "IC50": 11.1}
{"smiles": "O[C@H]1CC[C@H](n2nc(NCc3nc4cc(F)ccc4[nH]3)c3ncc(C4CC4)nc32)CC1", "note": "[Example 56, trans-4-(6-cyclopropyl-3-{[(5-fluoro-1H-benzimidazol-2-yl)methyl]amino}-1H-pyrazolo[3,4-b]pyrazin-1-yl)cyclohexan-1-ol]", "IC50": "> 18.1"}
{"smiles": "c1ccc2[nH]c(CNc3nn(C4COC4)c4nc(C5CC5)cnc34)nc2c1", "note": "[Example 55, N-[(1H-benzimidazol-2-yl)methyl]-6-cyclopropyl-1-(oxetan-3-yl)-1H-pyrazolo[3,4-b]pyrazin-3-amine]", "IC50": "> 20"}
{"smiles": "Cc1ccc2[nH]c(CNc3nn(C4CCN(C)CC4)c4nc(C5CC5)cnc34)nc2c1", "note": "[Example 6, 6-cyclopropyl-N-[(5-methyl-1H-benzimidazol-2-yl)methyl]-1-(1-methylpiperidin-4-yl)-1H-pyrazolo[3,4-b]pyrazin-3-amine]", "IC50": "> 20"}
{"smiles": "CC(C)n1nc(NCc2nc3ccccc3[nH]2)c2ncc(C3CC3)nc21", "note": "[Example 14, N-[(1H-benzimidazol-2-yl)methyl]-6-cyclopropyl-1-(propan-2-yl)-1H-pyrazolo[3,4-b]pyrazin-3-amine]", "IC50": "> 20"}
{"smiles": "Cn1nc(NCc2nc3ccccc3[nH]2)c2ncc(C3CC3)nc21", "note": "[Example 15, N-[(1H-benzimidazol-2-yl)methyl]-6-cyclopropyl-1-methyl-1H-pyrazolo[3,4-b]pyrazin-3-amine]", "IC50": "> 20"}
{"smiles": "O[C@H]1CC[C@@H](n2nc(NCc3nc4ccccc4[nH]3)c3ncc(C4CC4)nc32)CC1", "note": "[Example 51, cis-4-(3-{[(1H-benzimidazol-2-yl)methyl]amino}-6-cyclopropyl-1H-pyrazolo[3,4-b]pyrazin-1-yl)cyclohexan-1-ol]", "IC50": "> 20"}
